Earlier results, collected in patent publication US7820652B2, “Regimen for the administration of rifamycin-class antibiotics” (ActivBiotics Pharma, LLC, priority 2003, dated 2010).

In the case of `CO[C@H]1/C=C/O[C@@]2(C)Oc3c(C)c(O)c4c(=O)c(c5oc6cc(N7CCN(CC(C)C)CC7)cc(O)c6nc-5c4c3C2=O)NC(=O)/C(C)=C\C=C\[C@H](C)[C@H](O)[C@@H](C)[C@@H](O)[C@@H](C)[C@H](OC(C)=O)[C@@H]1C` [rifalazil], the “number and severity of adverse reactions” value (clinical trials, twice-a-week dosing regimen) is listed as “clear dose-related incidence”, the “blood cell counts and blood hemoglobin” value (daily administration) is listed as “changes in blood cell counts” and the adverse reactions (daily dose regimen) is listed as “severe adverse reactions”. For the same molecule, the “incidence of adverse reactions” value (once- or twice-a-week dosing regimen) was “reduced, but did not eliminate”, the “activity against mycobacterium species” value (mycobacterium species) was “effective” and the “efficacy against mycobacterium species” value (mycobacterium species; once or twice-a-week dose regimen, U.S. Pat. No. 6,316,433) was “efficacious”.
